Assays:
Rattus norvegicus [1] = species on record: Rattus norvegicus; assay: animal or person; format: functional; conditions: Wistar, Liver, po
Aromatase = biological target: T1, Aromatase (Homo sapiens, UniProt P11511)
T1 sequence (P11511 whole entry): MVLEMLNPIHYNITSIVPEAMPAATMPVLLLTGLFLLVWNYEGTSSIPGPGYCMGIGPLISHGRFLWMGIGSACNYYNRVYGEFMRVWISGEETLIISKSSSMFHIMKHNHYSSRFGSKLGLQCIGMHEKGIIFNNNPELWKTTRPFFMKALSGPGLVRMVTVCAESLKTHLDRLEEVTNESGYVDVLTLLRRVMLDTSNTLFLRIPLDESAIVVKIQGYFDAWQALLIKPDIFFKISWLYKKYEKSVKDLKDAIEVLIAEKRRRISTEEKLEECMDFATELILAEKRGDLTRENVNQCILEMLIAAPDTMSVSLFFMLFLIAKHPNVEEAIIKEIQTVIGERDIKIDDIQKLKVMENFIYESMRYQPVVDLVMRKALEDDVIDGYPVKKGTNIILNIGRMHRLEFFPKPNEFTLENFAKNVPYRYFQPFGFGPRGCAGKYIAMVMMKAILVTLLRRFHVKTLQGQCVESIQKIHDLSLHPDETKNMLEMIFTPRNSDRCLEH

Rattus norvegicus [2] = species on record: Rattus norvegicus; assay: animal or person; format: functional; conditions: Wistar, po, 3 h
MCF7 [3] = assay: animal or person; format: functional, Homo sapiens; conditions: Mus musculus, MCF7, po, 1176 h
Homo sapiens [4] = species on record: Homo sapiens; format: functional; conditions: at 80 mg/day
Steryl-sulfatase [5] = biological target: T2, Steryl-sulfatase (Homo sapiens, UniProt P08842); parameters: species or system Placenta, Microsome
T2 sequence (P08842 whole entry): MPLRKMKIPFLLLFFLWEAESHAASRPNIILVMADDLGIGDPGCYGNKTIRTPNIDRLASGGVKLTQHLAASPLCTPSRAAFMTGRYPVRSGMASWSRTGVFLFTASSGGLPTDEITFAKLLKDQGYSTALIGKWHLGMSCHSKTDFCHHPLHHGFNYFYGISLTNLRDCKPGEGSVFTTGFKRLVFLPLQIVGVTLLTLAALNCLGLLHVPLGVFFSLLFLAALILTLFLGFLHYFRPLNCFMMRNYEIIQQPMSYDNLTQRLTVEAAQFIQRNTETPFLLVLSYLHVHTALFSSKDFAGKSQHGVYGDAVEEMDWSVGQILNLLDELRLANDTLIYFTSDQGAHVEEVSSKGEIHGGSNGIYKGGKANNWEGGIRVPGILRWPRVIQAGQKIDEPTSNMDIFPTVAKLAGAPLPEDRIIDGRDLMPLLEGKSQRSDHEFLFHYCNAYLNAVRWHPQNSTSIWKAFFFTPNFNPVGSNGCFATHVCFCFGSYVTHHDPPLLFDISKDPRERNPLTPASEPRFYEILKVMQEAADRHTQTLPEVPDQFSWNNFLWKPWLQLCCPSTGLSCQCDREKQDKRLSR

MCF7 [6] = assay: animal or person; format: functional, Homo sapiens; conditions: Mus musculus, MCF7, po, 1176 h; remark: listed apart in the source
Homo sapiens [7] = species on record: Homo sapiens; format: functional; conditions: at 5 mg/day
in vivo = conditions: Wistar, rat, po, 10 mg/kg
Rattus norvegicus [8] = species on record: Rattus norvegicus; assay: animal or person; format: functional; conditions: Liver, po, 120 h
MCF7 [9] = assay: animal or person; format: functional, Homo sapiens; conditions: Mus musculus, MCF7, po, 1176 h; remark: listed apart in the source
Steryl-sulfatase [10] = biological target: T2, Steryl-sulfatase; format: microsomes, Placenta, Microsome
MCF7 [11] = assay: animal or person; format: functional, Homo sapiens; conditions: Mus musculus, MCF7, po, 1176 h; remark: listed apart in the source
DU-145 [12] = assay: cells; format: functional; conditions: Homo sapiens
MDA-MB-231 [13] = assay: cells; format: functional; conditions: Homo sapiens
MDA-MB-231 [14] = assay: animal or person; format: functional, Homo sapiens; conditions: Mus musculus, MDA-MB-231, po, 840 h
Steryl-sulfatase [15] = biological target: T2, Steryl-sulfatase
Estrogen receptor = biological target: T3, Estrogen receptor (Homo sapiens, UniProt P03372)
T3 sequence (P03372 whole entry): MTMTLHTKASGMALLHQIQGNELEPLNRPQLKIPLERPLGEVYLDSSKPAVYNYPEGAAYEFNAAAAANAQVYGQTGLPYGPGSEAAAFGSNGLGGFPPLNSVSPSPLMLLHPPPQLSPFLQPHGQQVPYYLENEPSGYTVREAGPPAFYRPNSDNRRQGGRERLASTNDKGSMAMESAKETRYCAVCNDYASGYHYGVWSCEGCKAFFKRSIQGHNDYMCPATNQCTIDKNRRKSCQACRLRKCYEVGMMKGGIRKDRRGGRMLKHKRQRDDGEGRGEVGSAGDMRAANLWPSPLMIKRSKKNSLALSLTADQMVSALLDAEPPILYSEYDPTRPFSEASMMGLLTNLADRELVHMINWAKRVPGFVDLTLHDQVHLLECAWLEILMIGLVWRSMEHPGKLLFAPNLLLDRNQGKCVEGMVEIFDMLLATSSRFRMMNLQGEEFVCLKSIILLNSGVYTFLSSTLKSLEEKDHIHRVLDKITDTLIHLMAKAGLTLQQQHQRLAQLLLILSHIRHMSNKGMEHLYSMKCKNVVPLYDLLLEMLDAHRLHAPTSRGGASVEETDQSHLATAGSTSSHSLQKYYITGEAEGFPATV

Steryl-sulfatase [16] = biological target: T2, Steryl-sulfatase; format: cell-based, HEK293
DU-145 [17] = assay: cells; format: functional; conditions: Homo sapiens, DU-145, 96 h
MDA-MB-231 [18] = assay: cells; format: functional; conditions: Homo sapiens, MDA-MB-231, 96 h
Carbonic anhydrase 2 = Carbonic anhydrase 2 (Homo sapiens, UniProt P00918)
Rattus norvegicus [19] = species on record: Rattus norvegicus; assay: animal or person; format: functional; conditions: Wistar, Liver, po, 24 h
Rattus norvegicus [20] = species on record: Rattus norvegicus; assay: animal or person; format: functional; conditions: Wistar, Liver, po, 24 h; remark: listed apart in the source
Rattus norvegicus [21] = species on record: Rattus norvegicus; assay: animal or person; format: functional; conditions: Wistar, Liver, sc, 168 h
Rattus norvegicus [22] = species on record: Rattus norvegicus; assay: animal or person; format: functional; conditions: Liver, po, 2 h
Homo sapiens [23] = species on record: Homo sapiens; format: functional
Rattus norvegicus [24] = species on record: Rattus norvegicus; assay: animal or person; format: functional; conditions: Liver, po, 2 h; remark: listed apart in the source
Rattus norvegicus [25] = species on record: Rattus norvegicus; assay: animal or person; format: functional; conditions: po, 2 h
Rattus norvegicus [26] = species on record: Rattus norvegicus; assay: animal or person; format: functional; conditions: po, 2 h; remark: listed apart in the source
Rattus norvegicus [27] = species on record: Rattus norvegicus; assay: animal or person; format: functional; conditions: po, 2 h; remark: listed apart in the source
Homo sapiens [28] = species on record: Homo sapiens; format: functional; remark: listed apart in the source
Homo sapiens [29] = species on record: Homo sapiens; format: functional; remark: listed apart in the source
MCF7 [30] = assay: cells; format: functional; conditions: Homo sapiens
Rattus norvegicus [31] = species on record: Rattus norvegicus; assay: animal or person; format: functional; conditions: Wistar, Liver, sc, 168 h; remark: listed apart in the source
Rattus norvegicus [32] = species on record: Rattus norvegicus; assay: animal or person; format: functional; conditions: Liver, po, 2 h; remark: listed apart in the source
Homo sapiens [33] = species on record: Homo sapiens; format: functional; remark: listed apart in the source

With `N#Cc1ccc(N(Cc2ccc(Br)cc2)n2cnnc2)cc1` as the compound, how does the inhibition in vivo at 10 mg/kg (Rattus norvegicus [1]) read?
Its inhibition in vivo at 10 mg/kg is no less than 98%.

What about the IC50 (Aromatase) of the same compound?
The IC50 was 0.12 nM.

What about the inhibition in vivo at 10 mg/kg (Rattus norvegicus [2]) of the same compound?
Its inhibition in vivo at 10 mg/kg is 70%.

Which results are given for `NS(=O)(=O)Oc1ccc2c(c1)OC(=O)C1CCCCCC21` (configuration not stated)?
inhibition in vivo at 20 mg/kg (MCF7 [3]): 39%; inhibition (INH) (Homo sapiens [4]): >=95%; IC50 (Steryl-sulfatase [5]): 8 nM; inhibition in vivo at 20 mg/kg (MCF7 [6]): 79%; inhibition (INH) (Homo sapiens [7]): >=95%; bioavailability (in vivo): 95%

What does the source list for `CCCN1C(=O)C[C@H]2[C@@H]3CCc4cc(OS(N)(=O)=O)ccc4[C@H]3CC[C@]2(C)C1=O`?
inhibition in vivo at 10 mg/kg/day (Rattus norvegicus [8]): 99%; inhibition in vivo at 10 mg/kg (MCF7 [9]): 39%; IC50 (Steryl-sulfatase [10]): 1 nM; inhibition in vivo at 10 mg/kg (MCF7 [11]): 56%

Which GI50 (DU-145 [12]) does the source give for `COc1cc2c(cc1OS(N)(=O)=O)CCN(Cc1cc(OC)c(OC)c(OC)c1)C2` here?
The GI50 was 297 nM.

And the GI50 (MDA-MB-231 [13])?
The GI50 was 329 nM.

And the inhibition in vivo at 20 mg/kg/day (MDA-MB-231 [14])?
The inhibition in vivo at 20 mg/kg/day was 84%.

For `CC(C)(C#N)c1cc(Cn2cncn2)cc(Sc2ccc(OS(N)(=O)=O)c(Cl)c2)c1`, which IC50 (Steryl-sulfatase [15]) is on record?
Its IC50 is 3000 nM.

For `CCN(Cc1ccc(C(=O)N2CCc3ccc(OS(N)(=O)=O)cc3C2)cc1)Cc1ccccn1`, which IC50 (Estrogen receptor) is on record?
The IC50 was 3100 nM.

And the IC50 (Steryl-sulfatase [16])?
Its IC50 is 300 nM.

With `CCN(CC)CCOCC[C@@]1(C)CC[C@H]2[C@@H]3[C@H](C)Cc4cc(OS(N)(=O)=O)ccc4[C@H]3CC[C@@]21C` as the compound, how does the GI50 (DU-145 [17]) read?
The GI50 was 51 nM.

And the GI50 (MDA-MB-231 [18])?
Its GI50 is 71 nM.

With `CCc1cc2c(cc1OS(N)(=O)=O)CC[C@@H]1[C@@H]2CC[C@]2(C)[C@@H](OS(N)(=O)=O)CC[C@@H]12` as the compound, how does the Ki (Carbonic anhydrase 2) read?
Its Ki is 232 nM.

For `NS(=O)(=O)Oc1ccc(C(=O)c2ccc(OS(N)(=O)=O)cc2)cc1`, which inhibition in vivo at 10 mg/kg (Rattus norvegicus [19]) is on record?
Its inhibition in vivo at 10 mg/kg is 93%.

What about the inhibition in vivo at 1 mg/kg (Rattus norvegicus [20]) of the same compound?
Its inhibition in vivo at 1 mg/kg is 84%.

For `C[C@]12CC[C@@H]3c4ccc(OS(N)(=O)=O)cc4CC[C@H]3[C@@H]1CCC2=O` [EMATE], which inhibition in vivo at 0.1 mg/kg (Rattus norvegicus [21]) is on record?
Its inhibition in vivo at 0.1 mg/kg is 87%.

What about the inhibition in vivo at 40 mg/kg (Rattus norvegicus [22]) of the same compound?
Its inhibition in vivo at 40 mg/kg is 98%.

What about the “inhibition (INH)” value (Homo sapiens [23]) of the same compound?
The value was 50%.

And the inhibition in vivo at 20 mg/kg (Rattus norvegicus [24])?
Its inhibition in vivo at 20 mg/kg is 98%.

What about the inhibition in vivo at 10 mg/kg (Rattus norvegicus [25]) of the same compound?
The inhibition in vivo at 10 mg/kg was 98%.

And the inhibition in vivo at 40 mg/kg (Rattus norvegicus [26])?
Its inhibition in vivo at 40 mg/kg is 98%.

What about the inhibition in vivo at 20 mg/kg (Rattus norvegicus [27]) of the same compound?
The inhibition in vivo at 20 mg/kg was 98%.

What about the “inhibition (INH)” value (Homo sapiens [28]) of the same compound?
The value was 34%.

What about the “inhibition (INH)” value (Homo sapiens [29]) of the same compound?
The value was 72%.

And the GI50 (MCF7 [30])?
Its GI50 is 22800 nM.

And the inhibition in vivo at 0.1 mg/kg (Rattus norvegicus [31])?
Its inhibition in vivo at 0.1 mg/kg is 87%.

What about the inhibition in vivo at 10 mg/kg (Rattus norvegicus [32]) of the same compound?
The inhibition in vivo at 10 mg/kg was 98%.

And the “inhibition (INH)” value (Homo sapiens [33])?
Its value is 41%.
